One data set concerns A549. Nature of the data set: Early toxicity: A549 cell growth. Conditions: 10 μM; 100% = not cytotoxic, 0% = cytostatic, −100% = cytotoxic. The data set is classed as cell-based.
For another data set, the system named is W1-38. The data set is described as follows: Early toxicity: W1-38 cell growth. Type of data set: cell-based. Conditions: 10 μM.
For data set [1], the system named is PMA-differentiated THP-1 cells. The data set is described as follows: Toxicity MTT assay in PMA-differentiated THP-1 cells. Type of data set: cell-based, human. Conditions: Table 2; read-out: Toxicity CC50 ± SD or NOAEL. The source says: (§1) The in vitro antiparasitic activity against L. infantum (MHOM/MA/67/ITMAP-263) and the toxicity against THP-1 macrophages is presented in Table 1.
A general note: Tetrazolium dyes change colour on reduction, which living cells bring about.

Experiment in data set [2]: as above
Type of data set: cell-based, human. The settings on record: human, PMA-differentiated THP-1 cells (macrophages); for CC50: THP-1 macrophages, Table 1, read-out: Toxicity CC50 ± SD or NOAEL; for IC50: Table 4b, read-out: Cytotoxicity THP-1 (IC50).
Description: as §1

A further data set concerns the target T1, CYP1A2 (Homo sapiens, UniProt P05177).
T1 sequence (P05177 1-516): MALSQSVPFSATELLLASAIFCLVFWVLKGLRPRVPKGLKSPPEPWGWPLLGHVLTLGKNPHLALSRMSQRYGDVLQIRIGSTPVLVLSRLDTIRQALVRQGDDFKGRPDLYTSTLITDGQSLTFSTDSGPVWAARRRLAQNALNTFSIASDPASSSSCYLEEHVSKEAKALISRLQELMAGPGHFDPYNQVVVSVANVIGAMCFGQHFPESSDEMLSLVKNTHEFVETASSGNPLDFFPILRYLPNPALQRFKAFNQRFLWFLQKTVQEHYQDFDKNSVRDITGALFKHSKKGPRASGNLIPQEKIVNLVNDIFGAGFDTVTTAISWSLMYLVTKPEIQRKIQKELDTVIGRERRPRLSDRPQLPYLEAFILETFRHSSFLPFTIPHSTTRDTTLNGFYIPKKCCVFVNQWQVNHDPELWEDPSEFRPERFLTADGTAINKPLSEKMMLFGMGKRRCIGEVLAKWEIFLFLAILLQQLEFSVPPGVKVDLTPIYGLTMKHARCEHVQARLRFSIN
Nature of the data set: Early toxicity: CYP1A2 inhibition. Type of data set: in vitro ADME. Conditions: human, mean ± SD, Table 4a.

For the next data set, the target named is CYP3A4 (Homo sapiens, UniProt P08684). The data set is described as follows: Early toxicity: CYP3A4 inhibition. The data set is classed as in vitro ADME. The settings on record: Table 4a; for inhibition at 10 µM: human, mean ± SD, read-out: % inhibition CYP3A4.
The subject of another data set is mitochondria. Nature of the data set: Early toxicity: mitochondrial toxicity. Type of data set: cell-based. The settings on record: for % mitochondrial toxicity: 10 μM, 100% mitotoxic, 0% not mitotoxic.
Data set [3] deals with T. b. brucei L427 WT Blood-Stream Form. Nature of the data set: Anti-parasitic activity against T. b. brucei blood-stream form (resazurin 72 h assay). The data set is classed as cell-based. Conditions: Table 2; for inhibition at 10 µM: read-out: Single Dose Assay 10 μM Mean Inhibitory Activity (%) ± SD. For orientation: The colour change of resazurin is a common sign of viable cells or microbes.

A further data set concerns the target hERG channel (Homo sapiens, UniProt Q12809). Nature of the data set: Early toxicity: hERG inhibition. Conditions: for Flag for Interference, hERG: Table 4b; for inhibition at 10 µM: human.
Another data set has as its target CYP2D6 (Homo sapiens, UniProt P10635). Nature of the data set: Early toxicity: CYP2D6 inhibition. Type of data set: in vitro ADME. The settings on record: Table 4a; for inhibition at 10 µM: human, mean ± SD.
The target in the next data set is CYP2C9 (Homo sapiens, UniProt P11712). The data set is described as follows: Early toxicity: CYP2C9 inhibition. Type of data set: in vitro ADME. Conditions: human, mean ± SD, Table 4a.
For data set [4], the system named is L. infantum (MHOM/MA/67/ITMAP-263) intracellular amastigotes. Nature of the data set: Anti-parasitic activity against L. infantum intracellular amastigotes (infection with axenic amastigotes luciferase positive). Type of data set: cell-based. The settings on record: Table 1; for inhibition at 10 µM: read-out: Single Dose Assay 10 μM Mean Inhibitory Activity (%) ± SD.

For the next data set, the target named is CYP2C19 (Homo sapiens, UniProt P33261). Nature of the data set: Early toxicity: CYP2C19 inhibition. Type of data set: in vitro ADME. Conditions: Table 4a; for inhibition at 10 µM: human, mean ± SD.
Data set [5] can be described thus: Snapshot pharmacokinetics in plasma after oral gavage. Type of data set: in vivo, mice. The settings on record: mouse, plasma, po, healthy BALB/c mice, 20 mg/kg gavage, Table 13. Here is the method: Pharmacology of 5-cyclopentadecylpentyl (2-(trimethylammonio)ethyl) phosphate (19) in mice.
Blood samples were collected from the tail vein at 0, 0.5, 0.75, 1, 3, 24 and 72 hours into heparinized tubes. Moreover, biodistribution of the molecule, 72h after administration, was determined in several organs of the treated mice, namely brain, liver, spleen, kidney, heart and bone marrow. […] J Chromatogr B, 865: 55-62) by liquid chromatography mass spectrometry (LC-MS/MS).

The subject of data set [6] is L. infantum axenic amastigotes expressing luciferase. The data set is described as follows: In vivo model of infection with L. infantum axenic amastigotes expressing luciferase. Conditions: ten consecutive oral treatments with 10 mg/kg, 2 weeks after last treatment. The protocol:
FIG. 4 illustrates the in vivo activity of compounds 18 and 19 in a model of infection with L. infantum axenic amastigotes expressing luciferase (10 consecutive treatments with 10 mg/kg of each compound, evaluated by limiting dilution assay 2 weeks after the last treatment).
In vivo activity of compounds 18 and 19 (ten consecutive oral treatments with 10 mg/kg of each compound, followed by a break of 2 weeks after last treatment), was studied in a model of infection with axenic amastigotes expressing luciferase, essentially as described in (Mendes Costa D. et al, J. Sci Rep. 2019 Dec. 12; 9(1):18989; Tavares J. et al., Methods Mol Biol. 2019; 1971:289-301). (FIG. 4).

Molecules are shown by their SMILES. Entries after “also recorded” stand apart in the source; their conditions may differ. Read-outs that look alike come from different tables or passages of the source.

hERG channel, sequence (Q12809 whole entry): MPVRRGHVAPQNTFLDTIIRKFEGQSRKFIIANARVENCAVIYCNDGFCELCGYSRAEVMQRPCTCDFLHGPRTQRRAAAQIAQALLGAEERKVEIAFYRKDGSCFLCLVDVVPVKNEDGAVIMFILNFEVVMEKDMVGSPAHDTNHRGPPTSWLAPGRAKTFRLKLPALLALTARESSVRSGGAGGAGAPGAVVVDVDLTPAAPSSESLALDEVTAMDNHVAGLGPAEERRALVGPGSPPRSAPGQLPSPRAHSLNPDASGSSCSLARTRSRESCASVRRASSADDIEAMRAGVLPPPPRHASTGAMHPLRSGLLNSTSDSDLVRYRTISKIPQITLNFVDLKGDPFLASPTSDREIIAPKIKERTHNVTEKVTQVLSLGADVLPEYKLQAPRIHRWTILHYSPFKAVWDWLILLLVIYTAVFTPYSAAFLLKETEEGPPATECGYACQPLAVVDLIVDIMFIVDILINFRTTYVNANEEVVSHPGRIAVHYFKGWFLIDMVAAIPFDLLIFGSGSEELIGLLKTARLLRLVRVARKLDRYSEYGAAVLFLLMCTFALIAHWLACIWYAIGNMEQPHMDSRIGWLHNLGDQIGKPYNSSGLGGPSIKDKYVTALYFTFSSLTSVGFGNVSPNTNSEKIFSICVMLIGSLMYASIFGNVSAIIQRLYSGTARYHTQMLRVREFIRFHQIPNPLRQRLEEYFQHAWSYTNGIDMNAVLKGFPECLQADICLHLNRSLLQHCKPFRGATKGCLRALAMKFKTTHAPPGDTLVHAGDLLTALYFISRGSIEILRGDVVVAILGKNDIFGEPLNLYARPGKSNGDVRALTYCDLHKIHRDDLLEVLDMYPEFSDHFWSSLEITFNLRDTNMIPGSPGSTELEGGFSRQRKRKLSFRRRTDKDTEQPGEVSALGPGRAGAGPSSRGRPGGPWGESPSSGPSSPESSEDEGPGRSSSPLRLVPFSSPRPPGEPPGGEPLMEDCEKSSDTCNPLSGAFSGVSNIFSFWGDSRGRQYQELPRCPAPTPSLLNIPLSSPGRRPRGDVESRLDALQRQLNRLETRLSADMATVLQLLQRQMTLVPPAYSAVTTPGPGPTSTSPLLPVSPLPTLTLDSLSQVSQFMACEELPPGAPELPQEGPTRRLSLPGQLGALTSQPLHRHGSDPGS
CYP2C19, sequence (P33261 whole entry): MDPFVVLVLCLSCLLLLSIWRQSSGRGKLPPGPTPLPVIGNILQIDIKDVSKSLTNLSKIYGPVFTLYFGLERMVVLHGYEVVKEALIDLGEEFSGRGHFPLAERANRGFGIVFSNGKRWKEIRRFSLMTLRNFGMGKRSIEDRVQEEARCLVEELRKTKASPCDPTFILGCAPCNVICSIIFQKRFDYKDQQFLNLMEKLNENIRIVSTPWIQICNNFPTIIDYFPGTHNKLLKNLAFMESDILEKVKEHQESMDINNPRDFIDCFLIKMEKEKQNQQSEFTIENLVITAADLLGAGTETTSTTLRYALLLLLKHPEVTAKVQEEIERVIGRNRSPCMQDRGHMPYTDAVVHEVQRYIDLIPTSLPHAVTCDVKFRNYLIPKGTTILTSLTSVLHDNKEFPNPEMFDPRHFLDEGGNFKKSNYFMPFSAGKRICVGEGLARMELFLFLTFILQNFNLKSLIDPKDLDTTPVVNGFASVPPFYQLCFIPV
CYP3A4, sequence (P08684 whole entry): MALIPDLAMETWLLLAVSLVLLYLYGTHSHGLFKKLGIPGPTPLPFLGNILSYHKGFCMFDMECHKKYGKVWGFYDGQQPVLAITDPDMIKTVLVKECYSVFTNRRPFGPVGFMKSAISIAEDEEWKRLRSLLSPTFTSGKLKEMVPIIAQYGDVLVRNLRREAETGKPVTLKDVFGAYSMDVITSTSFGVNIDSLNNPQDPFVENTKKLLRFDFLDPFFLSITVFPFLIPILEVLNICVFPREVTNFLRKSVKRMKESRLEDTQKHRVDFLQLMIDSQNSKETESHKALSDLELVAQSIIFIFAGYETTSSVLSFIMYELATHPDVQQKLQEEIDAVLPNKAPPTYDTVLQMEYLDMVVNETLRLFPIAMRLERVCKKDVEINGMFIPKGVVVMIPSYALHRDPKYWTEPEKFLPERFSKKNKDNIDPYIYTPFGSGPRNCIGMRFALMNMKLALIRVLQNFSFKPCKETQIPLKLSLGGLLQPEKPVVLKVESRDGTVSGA
CYP2D6, sequence (P10635 whole entry): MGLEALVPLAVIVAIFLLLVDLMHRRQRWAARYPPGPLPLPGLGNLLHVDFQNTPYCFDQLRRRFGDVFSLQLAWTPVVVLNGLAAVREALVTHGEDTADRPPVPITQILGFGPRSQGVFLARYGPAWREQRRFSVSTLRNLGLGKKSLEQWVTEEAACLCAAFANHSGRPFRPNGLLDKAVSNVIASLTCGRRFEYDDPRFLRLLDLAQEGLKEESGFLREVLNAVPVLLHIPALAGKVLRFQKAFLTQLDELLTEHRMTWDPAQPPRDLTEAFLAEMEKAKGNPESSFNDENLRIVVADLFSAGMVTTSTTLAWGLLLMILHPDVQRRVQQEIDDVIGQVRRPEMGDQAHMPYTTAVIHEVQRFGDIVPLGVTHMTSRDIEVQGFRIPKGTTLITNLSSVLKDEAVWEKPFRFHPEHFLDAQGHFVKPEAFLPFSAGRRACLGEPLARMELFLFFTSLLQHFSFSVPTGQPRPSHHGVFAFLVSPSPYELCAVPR
CYP2C9, sequence (P11712 whole entry): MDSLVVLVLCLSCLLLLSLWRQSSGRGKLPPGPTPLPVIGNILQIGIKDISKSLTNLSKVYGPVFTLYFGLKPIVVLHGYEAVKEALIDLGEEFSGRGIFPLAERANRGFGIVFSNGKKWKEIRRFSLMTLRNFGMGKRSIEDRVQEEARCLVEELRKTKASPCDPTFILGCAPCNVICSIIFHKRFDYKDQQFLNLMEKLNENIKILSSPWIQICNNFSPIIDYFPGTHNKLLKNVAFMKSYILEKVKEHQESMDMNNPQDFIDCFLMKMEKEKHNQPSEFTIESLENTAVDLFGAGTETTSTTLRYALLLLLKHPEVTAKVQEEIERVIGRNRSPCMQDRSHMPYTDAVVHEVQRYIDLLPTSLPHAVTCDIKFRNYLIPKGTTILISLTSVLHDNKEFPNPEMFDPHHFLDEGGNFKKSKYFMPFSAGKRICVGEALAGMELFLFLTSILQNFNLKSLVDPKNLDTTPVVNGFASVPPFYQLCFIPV

Regarding `C[N+](C)(C)CCCOP(=O)([O-])OCCCCC=C1CCCCCCCCCCCCCC1` [Compound 15, 5-cyclopentadecylidenepentyl (3-(trimethylammonio)propyl) phosphate], the “% cell growth A549” value in the data set on A549 is given as 112.20 ± 6.11%. Moreover, the “% cell growth W1-38” value in the data set with W1-38 came to 124.02 ± 7.42%. The 50% cytotoxic concentration (CC50) in data set [1] and in data set [2] was greater than 100 µM throughout. Moreover, the half-inhibitory concentration (IC50) (in general, the point on the concentration scale where inhibition reaches its midpoint) in data set [2] was greater than 100 µM. Further, the inhibition at 10 µM was 9.44 ± 2.84% against CYP1A2; 23.4 ± 1.94% at CYP3A4; 14 ± 5% in data set [3] (Trypanosoma brucei); 15.5 ± 4.66% against hERG channel; 32.4 ± 2.88% against CYP2D6; 15.6 ± 6.17% on CYP2C9. The inhibition at 10 µM in [4] (Leishmania infantum) stood at 49 ± 1%; on CYP2C19, 42 ± 7.27%. Besides, the “% mitochondrial toxicity” value with mitochondria worked out at 1.08 ± 12.57%. At hERG channel, the “Flag for Interference, hERG” value is “(no)”.

As to `C[N+](C)(C)CCOP(=O)([O-])OCCCCC1CCCCCCCCCCCCCC1` [Compound 18, 4-cyclopentadecylbutyl (2-(trimethylammonio)ethyl) phosphate], the “% cell growth A549” value in the data set with A549 was determined as 132.80 ± 8.98%. Also, the figures for the AUC(0-inf) in data set [5] (read-out: AUC (0-∞)) and in [5] (read-out: AUC (0-∞) (μM h/mL)) were 262 µg·h/mL and 586 µM·h, respectively. The Cmax in data set [5] (read-out: Cmax) came out at 20.3 µM; in [5] (read-out: Cmax (μg/mL)) it was 9.1 µg/mL. Further, the Tmax (as a rule, the time at which the peak concentration occurs) in data set [5] (read-out: tmax) worked out at 5 h. The half-life in [5] (read-out: t½ (converted)) was 16.3 h. The CC50 in data set [1] and in data set [2] was greater than 100 µM in each case. Also, the IC50 is greater than 100 µM in data set [2]; 7.44 ± 0.65 µM in data set [3] (Trypanosoma brucei, resazurin 72 h, read-out: Dose Response Curves IC50 ± SD); 0.6 ± 0.3 µM in data set [4] (Leishmania infantum, read-out: Dose Response Curves IC50 ± SD). Moreover, the inhibition at 10 µM on CYP1A2 stood at 14 ± 1.17%; at CYP3A4 it was 38.1 ± 2.67%; in data set [3] (Trypanosoma brucei) it was 91 ± 12%; on hERG channel it was 34.8 ± 14%; against CYP2D6, 64.5 ± 2.92%; against CYP2C9 it was 5.66 ± 5.52%. Besides, the figures for the inhibition at 10 µM (in [4] (Leishmania infantum); against CYP2C19) were 97 ± 2% and 33.3 ± 4.67%, respectively. Further, at CYP3A4, the “CYP3A4 interaction” value is recorded as “interact”. The “parasitic burden in the spleen, liver or bone marrow” value in data set [6] was “not effective”. Also, in the data set with mitochondria, the “% mitochondrial toxicity” value is reported as 109.49 ± 9.62%. The “mitochondrial toxicity” value in the data set on mitochondria (Table 4b) is listed as “exhibit mitochondrial toxicity”. For the same compound, the “activity against T. b. brucei blood-stream form” value in data set [3] was “unexpectedly high activity in the low micromolar range”. The “Selectivity Index CC50/IC50 or NOAEL/IC50” value is given as greater than 13 in data set [3] (toxicity / T. b. brucei IC50) and greater than 166 in [4] (THP-1 toxicity / L. infantum IC50). The “Flag for Interference, hERG” value on hERG channel is “(no)”. The “CYP2D6 interaction / inhibition” value at CYP2D6 (10 μM) is listed as “interact; also recorded: significant inhibition”. Moreover, the “CYP2C19 interaction / inhibition” value at CYP2C19 (10 μM) is “interact; also recorded: significant inhibition”.

The values are drawn from patent US20230365602A1, “COMPOUND FOR USE IN THE TREATMENT OF PROTOZOAL DISEASES AND PROCESS FOR PRODUCTION OF SAID COMPOUND” (QUADREL S.R.L., priority 2020, published 2023).
